Assay results: patent US20200368338A1, “CONJUGATE OF WT1-DERIVED PEPTIDES AND COMPOSITION COMPRISING THE SAME” (SUMITOMO DAINIPPON PHARMA CO., LTD., priority 2017, published 2020)

Tested on: HLA-A2402 transgenic mouse
Test: Evaluation of CTL inducing ability in vivo in HLA-A2402 transgenic mouse (IFNγ ELISPOT assay of splenocytes)
Conditions: intradermal emulsion with Montanide ISA 51 VG, tail base, two sites, splenocytes one week after administration stimulated with peptide of SEQ ID NO: 4 at 10 μg/ml, FIG. 1
Protocol: The solution was diluted with water for injection to a concentration of 5.0 mg/mL, and then converted to an emulsion by addition of an equal volume of Montanide ISA 51 VG. […] One week after the administration, the mice were sacrificed with CO2 gas. Splenocytes were harvested from spleens removed from the mice. […] In particular, an ELISPOT plate was treated with an anti-mouse-IFNγ antibody on the day before preparation of the splenocyte samples. On the next day, the plate was blocked by treatment with an RPMI 1640 medium with 10% FBS. […] For in vitro stimulation of the cells, the peptide of SEQ ID NO: 4 was dissolved in DMSO at a concentration of 40 mg/ml, diluted with RPMI 1640 with 10% FBS to 40 μg/ml, and added to the splenocyte-containing wells at a final concentration of 10 μg/ml. […] Then, after removal of the culture medium from the wells, the ELISPOT plate was subjected to treatment for cell staining in accordance with the manufacturer's protocol. Stained spots were counted on ImmunoSpot Analyzer (C.T.L.).

CYTWNQMNL [peptide of SEQ ID NO: 4, HLA-A2402-restricted WT1 peptide]
induction of CTLs responsive to the peptide of SEQ ID NO: 4 (IFNγ-producing splenocytes): induced CTLs responsive to the peptide of SEQ ID NO: 4
